Results published in ChEMBL document CHEMBL1201862, “PubChem BioAssay data set” (2004).
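A five-concentration, 48-hour dose response in 96-well plates underlies each endpoint, interpolated linearly between surrounding concentrations. The concentration for 50% growth inhibition is given as GI50.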 Active and inactive are the calls of the source. Cut-off read from the data, not from the text of the source: active = GI50 up to about 1.1 µM and inactive = higher.

What was measured:
Experiment in all cases: growth of human tumour cells (NCI), 48 h
[1] = test system: NCI-H460
[2] = test system: KM12
[3] = test system: UACC-257
[4] = test system: M14
[5] = test system: OVCAR-3
[6] = test system: UO-31
[7] = test system: MDA-N
[8] = test system: UACC-62
[9] = test system: MDA-MB-435
[10] = test system: MDA-MB-231
[11] = test system: U-251
[12] = test system: RXF 393
[13] = test system: LOX IMVI
[14] = test system: SF-539
[15] = test system: CAKI-1
[16] = test system: SK-MEL-2
[17] = test system: K562
[18] = test system: SK-MEL-28
[19] = test system: RPMI-8226
[20] = test system: HL-60

SMILES	GI50 [1]	GI50 [2]	GI50 [3]	GI50 [4]	GI50 [5]	GI50 [6]	GI50 [7]	GI50 [8]	GI50 [9]	GI50 [10]	GI50 [11]	GI50 [12]	GI50 [13]	GI50 [14]	GI50 [15]	GI50 [16]	GI50 [17]	GI50 [18]	GI50 [19]	GI50 [20]
CC(C)C(C/C=C1\CC(CO)(COC(=O)C(C)(C)C)OC1=O)C(C)C (stereo unspecified)	5.57 µM (inactive)	12.7 µM (inactive)	16 µM (inactive)	13.9 µM (inactive)	12.6 µM (inactive)	5.09 µM (inactive)	4.97 µM (inactive)	15.2 µM (inactive)	11.9 µM (inactive)	5.24 µM (inactive)	10.7 µM (inactive)	15.6 µM (inactive)	2.88 µM (inactive)	7.93 µM (inactive)	8.73 µM (inactive)	20.6 µM (inactive)	0.942 µM (active)	13.2 µM (inactive)	–	–
O=C(COc1ccc(OCC(=O)N2C(=O)CS/C2=N\c2ccccc2)cc1)N1C(=O)CS/C1=N\c1ccccc1	29 µM (inactive)	15.3 µM (inactive)	23.7 µM (inactive)	18.6 µM (inactive)	–	25.2 µM (inactive)	20.7 µM (inactive)	8.13 µM (inactive)	23.7 µM (inactive)	15.6 µM (inactive)	31.8 µM (inactive)	30.3 µM (inactive)	–	–	20.6 µM (inactive)	25.9 µM (inactive)	5.9 µM (inactive)	5.6 µM (inactive)	22.5 µM (inactive)	–
Cc1cccc(NC(=S)Nc2ccccc2Cl)n1	59.3 µM (inactive)	25.8 µM (inactive)	22.2 µM (inactive)	> 100 µM (inactive)	> 100 µM (inactive)	> 100 µM (inactive)	> 100 µM (inactive)	41 µM (inactive)	> 100 µM (inactive)	–	33.6 µM (inactive)	20.7 µM (inactive)	> 100 µM (inactive)	32.1 µM (inactive)	27.4 µM (inactive)	> 100 µM (inactive)	> 100 µM (inactive)	> 100 µM (inactive)	> 100 µM (inactive)	> 100 µM (inactive)
S=C1c2ccc(Cl)cc2-n2cnnc2C2CSCN12 (stereo unspecified)	> 100 µM (inactive)	> 100 µM (inactive)	> 100 µM (inactive)	> 100 µM (inactive)	> 100 µM (inactive)	> 100 µM (inactive)	63.1 µM (inactive)	> 100 µM (inactive)	95.1 µM (inactive)	> 100 µM (inactive)	> 100 µM (inactive)	> 100 µM (inactive)	> 100 µM (inactive)	–	> 100 µM (inactive)	> 100 µM (inactive)	13.9 µM (inactive)	> 100 µM (inactive)	> 100 µM (inactive)	–
C=C1C(=O)OC2CC(C)C(C(CC(C)=O)OC(C)=O)=CCC12 (stereo unspecified)	17 µM (inactive)	18.6 µM (inactive)	16.5 µM (inactive)	11 µM (inactive)	7.06 µM (inactive)	16.2 µM (inactive)	–	11.7 µM (inactive)	16.3 µM (inactive)	13.5 µM (inactive)	15.8 µM (inactive)	15.9 µM (inactive)	6.78 µM (inactive)	15.3 µM (inactive)	3.16 µM (inactive)	18 µM (inactive)	3.24 µM (inactive)	8.24 µM (inactive)	3.87 µM (inactive)	3.25 µM (inactive)
CCOC(=O)c1cn2c(n1)sc1cc(F)ccc12	> 100 µM (inactive)	62.8 µM (inactive)	> 100 µM (inactive)	64.4 µM (inactive)	> 100 µM (inactive)	> 100 µM (inactive)	19.4 µM (inactive)	> 100 µM (inactive)	42.3 µM (inactive)	92.7 µM (inactive)	77.6 µM (inactive)	85.1 µM (inactive)	80.7 µM (inactive)	99.5 µM (inactive)	> 100 µM (inactive)	> 100 µM (inactive)	> 100 µM (inactive)	> 100 µM (inactive)	> 100 µM (inactive)	–
CC(=O)Oc1cc2c(c3ncccc13)OC(C)(C)C2	8.71 µM (inactive)	13.4 µM (inactive)	15.5 µM (inactive)	12.8 µM (inactive)	11.5 µM (inactive)	> 100 µM (inactive)	2.94 µM (inactive)	> 100 µM (inactive)	3.33 µM (inactive)	10.1 µM (inactive)	12.4 µM (inactive)	12.4 µM (inactive)	–	12.1 µM (inactive)	7.4 µM (inactive)	17.6 µM (inactive)	6.19 µM (inactive)	15.2 µM (inactive)	20.3 µM (inactive)	–
C=CC1(C)CCC2C(=CCC3C(C)(COC4OC(C(=O)O)C(O)C(O)C4O)C(O)CCC23C)C1.C=CC1(C)CCC2C(=CCC3C2(C)CC(O)C(O)C3(C)COC2OC(C(=O)O)C(O)C(O)C2O)C1 (stereo unspecified)	> 100 µM (inactive)	> 100 µM (inactive)	83.4 µM (inactive)	> 100 µM (inactive)	> 100 µM (inactive)	> 100 µM (inactive)	> 100 µM (inactive)	> 100 µM (inactive)	> 100 µM (inactive)	> 100 µM (inactive)	> 100 µM (inactive)	> 100 µM (inactive)	> 100 µM (inactive)	> 100 µM (inactive)	> 100 µM (inactive)	> 100 µM (inactive)	54.5 µM (inactive)	> 100 µM (inactive)	> 100 µM (inactive)	–
COc1ccc(-c2cc(-c3ccco3)c(C#N)c(=S)n2C2OC(CO)C(O)C(O)C2O)cc1 (stereo unspecified)	> 100 µM (inactive)	> 100 µM (inactive)	> 100 µM (inactive)	52 µM (inactive)	49.7 µM (inactive)	> 100 µM (inactive)	> 100 µM (inactive)	–	> 100 µM (inactive)	36.2 µM (inactive)	82.8 µM (inactive)	> 100 µM (inactive)	50.4 µM (inactive)	> 100 µM (inactive)	> 100 µM (inactive)	> 100 µM (inactive)	> 100 µM (inactive)	> 100 µM (inactive)	> 100 µM (inactive)	–
CN(C)CCCN1C(=S)N(CCCN(C)C)c2c3ccccc3nc3c([N+](=O)[O-])ccc1c23	3.46 µM (inactive)	3.3 µM (inactive)	6.01 µM (inactive)	6.27 µM (inactive)	6.21 µM (inactive)	5.66 µM (inactive)	7.46 µM (inactive)	9.95 µM (inactive)	5.47 µM (inactive)	10.4 µM (inactive)	6.87 µM (inactive)	5.08 µM (inactive)	4.42 µM (inactive)	5.04 µM (inactive)	5.96 µM (inactive)	12.5 µM (inactive)	4.3 µM (inactive)	13.6 µM (inactive)	6.81 µM (inactive)	–
Nc1cc(N2CCOCC2)nc(=O)n1-c1ccccc1	> 100 µM (inactive)	> 100 µM (inactive)	> 100 µM (inactive)	> 100 µM (inactive)	> 100 µM (inactive)	> 100 µM (inactive)	> 100 µM (inactive)	> 100 µM (inactive)	> 100 µM (inactive)	–	> 100 µM (inactive)	–	> 100 µM (inactive)	> 100 µM (inactive)	> 100 µM (inactive)	> 100 µM (inactive)	> 100 µM (inactive)	> 100 µM (inactive)	> 100 µM (inactive)	21.4 µM (inactive)
CCCOc1ccc2sc(NC(=O)c3cc([N+](=O)[O-])cc([N+](=O)[O-])c3)nc2c1	50.4 µM (inactive)	26.8 µM (inactive)	–	50.4 µM (inactive)	26.3 µM (inactive)	18.5 µM (inactive)	–	25.5 µM (inactive)	36.7 µM (inactive)	35 µM (inactive)	32.4 µM (inactive)	48.4 µM (inactive)	20.8 µM (inactive)	29.2 µM (inactive)	28.6 µM (inactive)	50.2 µM (inactive)	65.5 µM (inactive)	50.5 µM (inactive)	31.8 µM (inactive)	67.3 µM (inactive)
O=C(CNc1ccccc1C(=O)O)Nn1cnc2ccc(S(=O)(=O)Nc3ccccc3C(=O)O)cc2c1=O	> 100 µM (inactive)	> 100 µM (inactive)	> 100 µM (inactive)	> 100 µM (inactive)	> 100 µM (inactive)	> 100 µM (inactive)	> 100 µM (inactive)	> 100 µM (inactive)	> 100 µM (inactive)	> 100 µM (inactive)	> 100 µM (inactive)	–	> 100 µM (inactive)	> 100 µM (inactive)	> 100 µM (inactive)	> 100 µM (inactive)	> 100 µM (inactive)	> 100 µM (inactive)	> 100 µM (inactive)	> 100 µM (inactive)
COc1cc2nc3n(c(=O)c2cc1OC)-c1ccc([N+](=O)[O-])cc1C3=O	68.4 µM (inactive)	80.2 µM (inactive)	60.5 µM (inactive)	52.1 µM (inactive)	22.6 µM (inactive)	11.8 µM (inactive)	30.5 µM (inactive)	30.5 µM (inactive)	19.4 µM (inactive)	46 µM (inactive)	46.7 µM (inactive)	20.3 µM (inactive)	38.7 µM (inactive)	> 100 µM (inactive)	5.06 µM (inactive)	> 100 µM (inactive)	31.5 µM (inactive)	3.15 µM (inactive)	28.7 µM (inactive)	–
SC1=NC2=C(CSC/C2=C\c2ccccc2)C(c2ccccc2)N1 (stereo unspecified)	33 µM (inactive)	41 µM (inactive)	22.3 µM (inactive)	54.1 µM (inactive)	> 100 µM (inactive)	33.8 µM (inactive)	31.3 µM (inactive)	27.9 µM (inactive)	–	45.1 µM (inactive)	35 µM (inactive)	27.9 µM (inactive)	38.1 µM (inactive)	76.6 µM (inactive)	> 100 µM (inactive)	49.3 µM (inactive)	30.3 µM (inactive)	> 100 µM (inactive)	35.2 µM (inactive)	15.2 µM (inactive)
